Data taken from US5508302A, “Phospholipase A2 inhibitors” (American Home Products Corporation, priority 1994, dated 1996).
pIC50: −log10 of the molar value. Values joined by “and” are separate entries in the source; they are usually repeats but may differ in a detail not shown here. Equal values may be shown once. Where a name gives a salt, the structure may show the parent alone.

Assays:
[1] = tested on: cyclooxygenase; test: resident murine peritoneal macrophage test, PGE2 (cyclooxygenase) by RIA; type: cell-based, mouse (female Swiss Webster); conditions: for pIC50: 95% confidence limits given, mouse macrophages
Protocol: (§1) The ability of the compounds of the invention to act as inhibitors of the enzymes 5-lipoxygenase and cyclooxygenase was evaluated in the resident murine peritoneal macrophage standard pharmacological test procedure. This test procedure was carried out as follows.
(§2) Resident peritoneal macrophages were collected from female Swiss Webster mice (49 days old, 20-25 gms, Buckshire) by lavaging with 7-8 ml Hanks Balanced Salt Solution (HBSS) without Ca^++ and Mg^++ (GIBCO). The lavage fluid from several mice was pooled and centrifuged at 4° C. for 10 minutes at 400 xg. The cell pellet was resuspended in Medium 199 (GIBCO) with HEPES buffer containing 100 μg/ml gentamicin. Two ml of the cell suspension (4×10^6 cells) were then plated on 35 mm culture dishes (Nunc).
A macrophage monolayer was established after a 1-1.5 hour incubation of the cells at 37° C. in an atmosphere of […] and 5% CO2. The monolayers were washed 2x with 2 ml HBDSS, containing Ca^++ and Mg^++ after which 2 ml Medium 199 supplemented with 10% freshly thawed heat-inactivated fetal bovine serum and 100 μg/ml gentamicin was added for an overnight incubation.
(§3) Residual serum and cellular debris were removed from the monolayers by washing 3x with 2 ml HBSS containing Ca^++ and Mg^++. Macrophages were preincubated for 5 minutes with 1 ml serum-free M199 containing 10 μl dimethyl sulfoxide (DMSO) vehicle or test compound prior to cell activation with zymosan ([…]) or arachidonic acid (AA) (2 μM). After 2 hours, the supernatants are removed and either assayed for LTC4 and PGE2 by radioimmunoassay (RIA) directly or stored at -20° C. In all cases, results are expressed as ng metabolite/4×10^6 cells.
(§4) Calculations: The raw data were converted to ng metabolite/4-10^6 cells using a standard curve. Results were then expressed as percent inhibition of zymosan induced, leukotriene or prostaglandin synthesis (control) using the following equation: […]

[2] = molecular target: T1, 5-lipoxygenase (Mus musculus, UniProt P48999); test: resident murine peritoneal macrophage test, LTC4 (5-lipoxygenase) by RIA; type: cell-based, mouse (female Swiss Webster)
T1 construct: Resident peritoneal macrophages were collected from female Swiss Webster mice; endogenous in cells; host or cells: resident peritoneal macrophages of female Swiss Webster mice
T1 sequence (P48999 1-674): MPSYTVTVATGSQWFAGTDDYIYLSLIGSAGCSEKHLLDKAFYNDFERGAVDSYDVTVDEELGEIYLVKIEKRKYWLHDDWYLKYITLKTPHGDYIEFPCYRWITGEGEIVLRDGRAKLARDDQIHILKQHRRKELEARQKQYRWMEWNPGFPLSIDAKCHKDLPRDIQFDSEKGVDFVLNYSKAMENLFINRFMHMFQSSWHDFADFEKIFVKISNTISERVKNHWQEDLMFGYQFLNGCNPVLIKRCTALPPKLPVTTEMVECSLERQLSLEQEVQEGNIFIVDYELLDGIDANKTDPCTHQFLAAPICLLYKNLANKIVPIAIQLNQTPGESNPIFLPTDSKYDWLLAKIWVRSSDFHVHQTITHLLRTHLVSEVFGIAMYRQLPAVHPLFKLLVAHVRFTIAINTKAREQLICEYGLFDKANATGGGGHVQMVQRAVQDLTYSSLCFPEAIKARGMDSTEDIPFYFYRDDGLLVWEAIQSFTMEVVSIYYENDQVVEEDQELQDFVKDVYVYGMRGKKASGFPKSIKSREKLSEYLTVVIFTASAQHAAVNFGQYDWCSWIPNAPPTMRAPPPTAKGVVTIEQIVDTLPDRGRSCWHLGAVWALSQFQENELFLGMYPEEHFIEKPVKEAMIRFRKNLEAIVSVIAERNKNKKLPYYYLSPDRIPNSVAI
Protocol: as §1
as §2, with “The cell pellet was resuspended in Medium 199 (GIBCO) with HEPES buffer containing 100 μg/ml gentamicin.” left out
as §3, §4

[3] = tested on: tetradecanoylphorbol acetate (TPA) induced ear edema; test: TPA induced ear edema in Webster mice (dermal inflammation); type: in vivo; conditions: for inhibition of TPA induced ear edema: 100 mg/kg, oral, 30 min after TPA, ears measured 4 hrs after TPA
Protocol: Representative compounds of this invention were evaluated in an in vivo standard pharmacological test procedure that measured the effect of the representative compounds on dermal inflammation, as measured by the prevention of tetradecanoylphorbol acetate (TPA) induced ear edema in Webster mice. This test procedure was carried out as follows.
Mice were placed into plastic boxes in groups of six. Eight groups of mice received TPA topically on the right ear. TPA was dissolved in acetone at a concentration of 100 ug/ml. TPA was applied to the right ear by the means of an automatic pipette. Volumes of 10 ul were applied to the inner and outer surfaces of the ear. Each mouse received 2 ug/ear TPA. The left ear (control) received acetone delivered in the same manner. The compounds to be evaluated were given orally 30 min alter treatment with TPA.
Measurements were taken with Oditest calipers, 0-10 mm with 0.01 graduations. The right and left ears were measured 4 hrs after TPA-induced inflammation.
The difference between right and left ear thickness was calculated and the significance was determined by a one way analysis of variance with Dunnet's comparisons to control (P=0.05). Drug effects are expressed as a percent change from control values according to the following formula. [formula]

SMILES	LTC4 % Inhibition ([2]; dose 0.1 μM)	LTC4 % Inhibition ([2]; dose 0.5 μM)	PGE2 % Inhibition ([1]; dose 0.5 μM)	inhibition of TPA induced ear edema [3]	also measured
CCCCCC#CCC#CCC#CCC#CCCCC(=O)O [ETYA, reference compound]					pIC50 [1]: 5.90
O=C(CCC1CCCCCCCCCCC1=O)C1=C(O)COC1=O (centres unmarked) [Example 1, 4-Hydroxy-3-[3-(2-oxocyclododecyl)-propionyl]-2-(5H)-furanone]	2.1%	38.7%	5.8%		PGE2 % Inhibition ([1]; dose 0.1 μM): -17.9%
O=C(CCC1CCCCCCCCCCC1=O)C1=C(O)CSC1=O (centres unmarked) [Example 2, 4-Hydroxy-3-[3-(2-Oxocyclododecyl)propionyl]-2-(5H)-thiophenone]	-4.9%	39.5%	3.3%	40%	PGE2 % Inhibition ([1]; dose 0.1 μM): -35.0%
O=C(CCC1CCCCCCCCCCC1=NOCc1ccccc1)C1=C(O)COC1=O (centres unmarked) [Example 3, 3-{3-[2-(Benzyloxyimino)cyclododecyl]-propionyl}-4-hydroxy-2-(5H)-furanone 2-amino-(2-hydroxymethyl)-1,3-propanediol salt]	38% and 53%	64% and 68%	86% and 59%	34%	LTC4 % Inhibition ([2]; dose 0.03 μM): 40%; PGE2 % Inhibition ([1]; dose 0.03 μM): 8%
O=C(CCC1CCCCCCCCCCC1=NOCc1ccccc1)C1=C(O)CSC1=O (centres unmarked) [Example 4, 3-{3-[2-(Benzyloxyimino)cyclododecyl]-propionyl}-4-hydroxy-2-(5H)-thiophenone 2-amino-(2-hydroxymethyl)-1,3-propanediol salt]	37% and 66%	77%	82%	19%	LTC4 % Inhibition ([2]; dose 0.03 μM): 45%; LTC4 % Inhibition ([2]; dose 0.35 μM): 97%; PGE2 % Inhibition ([1]; dose 0.03 μM): 18%; PGE2 % Inhibition ([1]; dose 0.35 μM): 52%
COc1ccc2c(c1)c(CC(=O)O)c(C)n2C(=O)c1ccc(Cl)cc1 [Indomethacin, reference compound]					activity in TPA induced ear edema ([3]; at 10 mg/g (so in the source)): inactive
CC(Cc1ccc(O)c(O)c1)C(C)Cc1ccc(O)c(O)c1 (centres unmarked) [NDGA, reference compound]					pIC50 [1]: 5.67
